In ChEMBL document CHEMBL1201862, “PubChem BioAssay data set” (2004):
Each block holds one molecule with its values, some of them ahead of it. The source made the active and inactive calls.

What was measured:
[1] = LGR2 antagonists, dose response, cell-based, HEK293, CRE-luciferase reporter, cherry pick, set 2 (AID 743343); format: functional;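 note: transfected cells were stimulated with diluted bursicon conditioned medium after compound addition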
[2] = HEK293 cell cytotoxicity, dose response, cytotoxicity control, plate reader, cherry-picked samples (AID 743446); format: functional, cell-based
[3] = MC4R antagonists, dose response, counter-screen for LGR2 antagonist project, cell-based, plate reader, cherry pick (AID 743444); format: functional;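 note: transfected HEK 293 cells stimulated with alpha-MSH peptide; potency of inhibitors of the alpha-MSH evoked signal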
[4] = Luminescence Cell-Based Dose Confirmation HTS to Identify Inhibitors of Platelet Dense Granule Release. [Related pubchem assays: 1663 (Primary HTS), 1678 (Summary of Project)]; format: functional
[5] = target: Luciferin 4-monooxygenase (Photinus pyralis, UniProt P08659); experiment: firefly luciferase enzyme inhibitors, dose response, biochemical, luminescence (AID 1891)
Chain of Luciferin 4-monooxygenase (P08659 whole entry): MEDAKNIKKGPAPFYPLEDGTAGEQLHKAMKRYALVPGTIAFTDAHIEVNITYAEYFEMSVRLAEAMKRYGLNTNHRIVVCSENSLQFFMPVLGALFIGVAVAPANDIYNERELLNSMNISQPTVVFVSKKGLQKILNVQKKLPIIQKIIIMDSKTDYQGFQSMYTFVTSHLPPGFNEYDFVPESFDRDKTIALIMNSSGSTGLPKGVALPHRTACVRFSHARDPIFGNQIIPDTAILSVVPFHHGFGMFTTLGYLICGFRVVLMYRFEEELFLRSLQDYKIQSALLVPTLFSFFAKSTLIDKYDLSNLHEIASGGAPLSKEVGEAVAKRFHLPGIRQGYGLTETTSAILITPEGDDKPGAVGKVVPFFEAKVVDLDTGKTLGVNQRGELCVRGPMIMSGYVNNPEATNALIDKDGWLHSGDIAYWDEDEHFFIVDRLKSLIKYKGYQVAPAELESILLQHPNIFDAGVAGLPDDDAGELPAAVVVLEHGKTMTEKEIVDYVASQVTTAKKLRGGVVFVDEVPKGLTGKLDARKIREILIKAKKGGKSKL

[6] = target: T1, Microphthalmia-associated transcription factor (Homo sapiens, UniProt O75030); experiment: TRPM1 promoter luciferase signal decrease, dose response, MITF inhibitor project, cell-based, SK-MEL-5, cherry-picked, set 3 (AID 493073); format: functional
T1 sequence (O75030 whole entry): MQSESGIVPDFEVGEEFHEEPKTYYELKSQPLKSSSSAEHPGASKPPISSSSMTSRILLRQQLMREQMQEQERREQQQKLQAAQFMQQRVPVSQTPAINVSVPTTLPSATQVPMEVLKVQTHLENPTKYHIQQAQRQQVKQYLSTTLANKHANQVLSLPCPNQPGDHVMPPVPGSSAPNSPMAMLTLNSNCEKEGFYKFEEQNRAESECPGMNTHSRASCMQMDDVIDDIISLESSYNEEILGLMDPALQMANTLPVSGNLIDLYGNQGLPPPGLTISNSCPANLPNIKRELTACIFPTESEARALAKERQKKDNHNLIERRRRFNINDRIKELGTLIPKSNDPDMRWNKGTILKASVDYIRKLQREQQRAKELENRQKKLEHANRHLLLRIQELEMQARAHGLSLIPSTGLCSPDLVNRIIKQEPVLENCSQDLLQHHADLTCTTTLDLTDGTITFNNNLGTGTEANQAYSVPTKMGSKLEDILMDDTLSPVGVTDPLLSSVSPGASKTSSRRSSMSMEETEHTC

[7] = target: T2, Histone-lysine N-methyltransferase NSD2 (Homo sapiens, UniProt O96028); format: biochemical
T2 sequence (O96028 whole entry): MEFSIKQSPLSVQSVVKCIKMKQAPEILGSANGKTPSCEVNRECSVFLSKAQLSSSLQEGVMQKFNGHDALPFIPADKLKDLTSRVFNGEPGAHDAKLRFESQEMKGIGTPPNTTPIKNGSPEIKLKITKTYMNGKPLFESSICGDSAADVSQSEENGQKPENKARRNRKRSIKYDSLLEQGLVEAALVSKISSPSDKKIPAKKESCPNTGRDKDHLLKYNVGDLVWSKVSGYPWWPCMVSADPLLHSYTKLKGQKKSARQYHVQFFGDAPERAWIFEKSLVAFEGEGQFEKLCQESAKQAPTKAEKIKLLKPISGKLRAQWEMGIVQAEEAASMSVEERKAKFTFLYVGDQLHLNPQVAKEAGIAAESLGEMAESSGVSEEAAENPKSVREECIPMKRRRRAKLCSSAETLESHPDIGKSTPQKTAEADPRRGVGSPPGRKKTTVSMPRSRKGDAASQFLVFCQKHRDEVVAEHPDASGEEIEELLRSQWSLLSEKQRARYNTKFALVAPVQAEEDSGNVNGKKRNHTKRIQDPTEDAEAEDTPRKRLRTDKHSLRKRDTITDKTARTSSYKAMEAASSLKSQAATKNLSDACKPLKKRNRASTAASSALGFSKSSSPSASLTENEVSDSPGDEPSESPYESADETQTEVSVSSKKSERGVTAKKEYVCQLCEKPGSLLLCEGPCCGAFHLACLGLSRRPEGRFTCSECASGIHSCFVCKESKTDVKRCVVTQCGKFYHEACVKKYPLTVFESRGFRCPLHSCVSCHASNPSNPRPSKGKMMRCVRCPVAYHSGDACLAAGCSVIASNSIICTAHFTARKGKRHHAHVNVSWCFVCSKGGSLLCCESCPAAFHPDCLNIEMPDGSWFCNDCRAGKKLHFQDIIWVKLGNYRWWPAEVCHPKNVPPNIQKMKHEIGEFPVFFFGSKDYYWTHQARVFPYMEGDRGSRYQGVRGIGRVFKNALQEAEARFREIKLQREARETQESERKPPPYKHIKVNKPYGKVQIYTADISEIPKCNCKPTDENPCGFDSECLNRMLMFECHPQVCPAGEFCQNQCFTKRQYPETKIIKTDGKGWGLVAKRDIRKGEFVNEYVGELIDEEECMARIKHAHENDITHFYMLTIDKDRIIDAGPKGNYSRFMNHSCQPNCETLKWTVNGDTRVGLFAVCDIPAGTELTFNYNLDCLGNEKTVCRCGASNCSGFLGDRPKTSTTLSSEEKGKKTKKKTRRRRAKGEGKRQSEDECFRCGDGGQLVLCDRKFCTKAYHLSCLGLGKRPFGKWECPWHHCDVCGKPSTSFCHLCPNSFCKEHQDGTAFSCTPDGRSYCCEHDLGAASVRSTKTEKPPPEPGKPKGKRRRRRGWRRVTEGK

[8] = target: T3, Caspase-6 (Homo sapiens, UniProt P55212); experiment: human caspase-6 inhibitors, dose response, biochemical, VEID-R110 fluorescence, cherry-pick (AID 720632)
T3 sequence (P55212 whole entry): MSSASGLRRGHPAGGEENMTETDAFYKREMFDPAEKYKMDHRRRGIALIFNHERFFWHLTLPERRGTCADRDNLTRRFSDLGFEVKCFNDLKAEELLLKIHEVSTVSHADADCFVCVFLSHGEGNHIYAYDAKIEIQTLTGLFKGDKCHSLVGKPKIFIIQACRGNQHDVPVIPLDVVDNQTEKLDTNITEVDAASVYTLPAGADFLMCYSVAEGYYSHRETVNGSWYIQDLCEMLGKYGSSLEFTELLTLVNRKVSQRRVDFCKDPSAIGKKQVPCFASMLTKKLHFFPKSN

[9] = target: T4, Tyrosyl-DNA phosphodiesterase 2 (Homo sapiens, UniProt O95551); experiment: human TDP2 enzyme inhibitors, dose response, biochemical, epi absorbance, IC50 (AID 743297)
T4 sequence (O95551 whole entry): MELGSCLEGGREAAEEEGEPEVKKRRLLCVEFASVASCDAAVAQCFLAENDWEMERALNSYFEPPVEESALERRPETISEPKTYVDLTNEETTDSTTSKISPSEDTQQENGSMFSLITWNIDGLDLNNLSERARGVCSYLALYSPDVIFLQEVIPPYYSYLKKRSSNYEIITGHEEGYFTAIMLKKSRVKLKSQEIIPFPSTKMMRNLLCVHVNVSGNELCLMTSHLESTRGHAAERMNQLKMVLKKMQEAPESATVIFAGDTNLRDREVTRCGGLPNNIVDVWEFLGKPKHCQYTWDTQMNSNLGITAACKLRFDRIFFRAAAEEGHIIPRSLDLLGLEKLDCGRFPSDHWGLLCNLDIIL

[10] = target: Paired box protein Pax-8 (Homo sapiens, UniProt Q06710); experiment: inhibitors of PAX8-driven TPO luciferase reporter, dose response, RMG-I cells, cherry-pick (AID 687027); format: functional, cell-based;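 note: luciferase reporter driven by Pax8 target thyroperoxidase promoter measured by SteadyGlo luminescence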
Chain of Paired box protein Pax-8 (Q06710 whole entry): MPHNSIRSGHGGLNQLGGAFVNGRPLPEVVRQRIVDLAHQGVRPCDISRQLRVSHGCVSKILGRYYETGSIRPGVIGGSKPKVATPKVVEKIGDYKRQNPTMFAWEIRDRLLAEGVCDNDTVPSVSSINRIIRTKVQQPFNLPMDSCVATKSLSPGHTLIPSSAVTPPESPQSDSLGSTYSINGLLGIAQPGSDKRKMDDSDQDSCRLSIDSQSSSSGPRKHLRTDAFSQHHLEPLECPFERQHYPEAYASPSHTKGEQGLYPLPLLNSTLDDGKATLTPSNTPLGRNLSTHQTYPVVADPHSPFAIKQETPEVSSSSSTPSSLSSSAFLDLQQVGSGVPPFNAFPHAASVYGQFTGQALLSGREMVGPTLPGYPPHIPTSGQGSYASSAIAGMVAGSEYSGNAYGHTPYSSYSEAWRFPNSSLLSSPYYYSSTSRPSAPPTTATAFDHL

[11] = cytotoxicity in OVCAR8 ovarian cancer cells, dose response, PAX8 project, cell-based, plate reader, dry powder samples (AID 743197); format: functional; settings: OVCAR-8
[12] = HepG2 cell cytotoxicity, dose response, cytotoxicity control, plate reader, dry powder samples (AID 1159569); format: functional, cell-based;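 note: inhibitor potency with signal falling toward the positive control level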
[13] = P. falciparum ATP4 D1247Y mutant growth inhibitors, dose response, NITD609-resistant line, SYBR Green, dry powder (AID 1159571); format: functional, cell-based;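 note: parasites synchronized at ring stage by sorbitol before testing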
[14] = HepG2 cell cytotoxicity, dose response, cytotoxicity control, cherry-picked samples (AID 1159577); format: functional, cell-based
[15] = NIH:OVCAR-3 ovarian cancer cell cytotoxicity, dose response, PAX8 inhibitor project, plate reader, dry powder samples (AID 743044); format: functional, cell-based
[16] = P. falciparum 3D7-ScDHODH growth inhibitors, dose response, SYBR Green, dry powder samples (AID 1159570); format: functional, cell-based;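 note: parasite growth measured after 72 hours of compound exposure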
[17] = P. falciparum Dd2 growth inhibitors, dose response, SYBR Green, dry powder samples (AID 1159566); format: functional, cell-based;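 note: potency for growth inhibition with lower SYBR green DNA signal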
[18] = P. falciparum Dd2 growth inhibitors, dose response, SYBR Green, cherry-picked samples (AID 1159567); format: functional, cell-based
[19] = Glucagon-like peptide 1 release potency, NCI-H716 cell line, dose-response, half-maximal inhibitory concentration (AID 1117344); format: functional, cell-based
[20] = half-maximal inhibitory concentration for glucagon-like peptide-1 release, STC-1 cell line, dose-response (AID 1117345); format: functional, cell-based
[21] = HepG2 cell cytotoxicity, dose response, cytotoxicity control, plate reader, cherry-pick, antagonist series (AID 743416); format: functional, cell-based
[22] = A549 cell cytotoxicity, dose response, cytotoxicity control, plate reader, cherry-pick, antagonist series (AID 743412); format: functional, cell-based
[23] = P. falciparum Dd2 growth inhibitors, dose response, SYBR Green, dry powder samples, set 9 (AID 1159568); format: functional, cell-based

Compound: COc1cc(SC)ccc1C(=O)Nc1ncc(C)s1
AC50 [1]: 1 µM (active)
AC50 [2]: > 52 µM (inactive)
AC50 [3]: 1.01 µM (active)
EC50 [4]: 11.6 µM (active)
EC50 [5]: 8.16 µM (active)
AC50 [6]: 3.65 µM (active)

AC50 [7]: 18.5 µM (active)
AC50 [8]: 26.2 µM (active)
IC50 [9]: > 129 µM (inactive)
Compound: Cc1cnc(C2OCCO2)c2cccc(N)c12

Compound: C[C@@H]1CN([C@@H](C)CO)C(=O)Cc2cc(NC(=O)Cc3cn(C)c4ccccc34)ccc2O[C@H]1CN(C)Cc1ccc(Oc2ccccc2)cc1
AC50 [10]: 7.45 µM (active)
AC50 [11]: 43.1 µM (active)
AC50 [12]: 22.2 µM (active)
AC50 [13]: 1.65 µM (active)
AC50 [14]: > 39 µM (inactive)
AC50 [15]: 22.6 µM (active)
AC50 [16]: 1.6 µM (active)
AC50 [17]: 1.05 µM (active)
AC50 [18]: 1.34 µM (active)

Compound: C#CC1(O)CC[C@H]2[C@@H]3CCC4=CCCC[C@@H]4[C@H]3CC[C@@]21C (some centres undefined)
IC50 [19]: 27.5 µM (inactive)
IC50 [20]: > 40 µM (inactive)

Compound: O=C(C[C@@H]1C[C@H]2c3cc(NC(=O)c4ccc5c(c4)OCO5)ccc3O[C@H]2[C@@H](CO)O1)NCc1ccc(Oc2ccccc2)cc1
AC50 [21]: 20.5 µM (active)
AC50 [1]: 32.7 µM (active)
AC50 [22]: 35.3 µM (active)
AC50 [23]: > 39 µM (inactive)

Compound: C[C@@H]1CN([C@@H](C)CO)C(=O)c2cccc(NC(=O)c3ccc(-c4nccs4)cc3)c2O[C@@H]1CN(C)C(=O)Nc1ccc(C(F)(F)F)cc1
AC50 [21]: 33.2 µM (active)
AC50 [1]: 43.7 µM (active)
AC50 [22]: 25.5 µM (active)
AC50 [3]: 54.1 µM (active)
AC50 [23]: 2.16 µM (active)
